Assay results published in patent US10428080B2, “TBK/IKK inhibitor compounds and uses thereof” (Merck Patent GmbH, priority 2015, dated 2019).

Columns and labels:
IKKε = molecular target: T1, IKKε (Homo sapiens, UniProt Q14164); assay: IKKe Biochemical Assay; details: read-out: IKKε IC50
T1 sequence (Q14164 1-716): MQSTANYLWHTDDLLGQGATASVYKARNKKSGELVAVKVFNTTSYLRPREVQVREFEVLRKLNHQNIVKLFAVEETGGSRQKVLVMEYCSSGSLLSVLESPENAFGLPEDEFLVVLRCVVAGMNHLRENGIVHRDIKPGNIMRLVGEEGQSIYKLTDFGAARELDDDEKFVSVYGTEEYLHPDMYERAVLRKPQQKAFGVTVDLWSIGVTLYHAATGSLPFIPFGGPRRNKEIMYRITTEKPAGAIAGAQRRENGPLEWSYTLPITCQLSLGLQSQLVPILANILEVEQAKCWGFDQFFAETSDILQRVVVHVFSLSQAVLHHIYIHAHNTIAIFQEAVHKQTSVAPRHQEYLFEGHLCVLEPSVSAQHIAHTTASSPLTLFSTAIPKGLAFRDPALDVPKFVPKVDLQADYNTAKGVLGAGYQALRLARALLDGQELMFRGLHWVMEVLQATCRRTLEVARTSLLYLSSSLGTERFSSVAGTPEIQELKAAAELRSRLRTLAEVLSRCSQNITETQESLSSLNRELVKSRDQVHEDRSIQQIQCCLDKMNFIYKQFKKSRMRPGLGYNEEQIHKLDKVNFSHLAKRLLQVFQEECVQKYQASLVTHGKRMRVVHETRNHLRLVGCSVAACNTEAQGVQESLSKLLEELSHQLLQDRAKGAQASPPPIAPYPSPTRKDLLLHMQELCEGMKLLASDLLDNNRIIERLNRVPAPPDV
Outline: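 Recombinant IKKε and substrate were incubated with compound (10-point 1:4 series, top 30 uM final, 1% DMSO) for 90 min at 25° C, then stopped. Substrate-to-product conversion was read by LabChip microfluidic mobility shift; 10 uM staurosporine served as full-inhibition wells.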

[1] = system: phosphorylation of the IRF-3 protein in MDA-MB-468 cells; assay: pIRF3 immunocytochemistry cell based assay; details: Homo sapiens; MDA-MB-468 cells, Poly(I:C) stimulation; read-out: pIRF3 IC50
Outline: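 MDA-MB-468 cells got compounds (10-point, 3-fold from 10 uM) for 1 h at 37 °C, then 10 ug/ml Poly(I:C) for 2 h. Fixed, permeabilized cells were immunostained for pIRF3 with AlexaFluor488 and counterstained with PI. % phosphorylation was read by laser scanning cytometry, and IC50 curves were fitted.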

TBK1 = molecular target: T2, TBK1 (Homo sapiens, UniProt Q9UHD2); assay: TBK Biochemical Assay; details: read-out: TBK1 IC50
T2 sequence (Q9UHD2 1-729): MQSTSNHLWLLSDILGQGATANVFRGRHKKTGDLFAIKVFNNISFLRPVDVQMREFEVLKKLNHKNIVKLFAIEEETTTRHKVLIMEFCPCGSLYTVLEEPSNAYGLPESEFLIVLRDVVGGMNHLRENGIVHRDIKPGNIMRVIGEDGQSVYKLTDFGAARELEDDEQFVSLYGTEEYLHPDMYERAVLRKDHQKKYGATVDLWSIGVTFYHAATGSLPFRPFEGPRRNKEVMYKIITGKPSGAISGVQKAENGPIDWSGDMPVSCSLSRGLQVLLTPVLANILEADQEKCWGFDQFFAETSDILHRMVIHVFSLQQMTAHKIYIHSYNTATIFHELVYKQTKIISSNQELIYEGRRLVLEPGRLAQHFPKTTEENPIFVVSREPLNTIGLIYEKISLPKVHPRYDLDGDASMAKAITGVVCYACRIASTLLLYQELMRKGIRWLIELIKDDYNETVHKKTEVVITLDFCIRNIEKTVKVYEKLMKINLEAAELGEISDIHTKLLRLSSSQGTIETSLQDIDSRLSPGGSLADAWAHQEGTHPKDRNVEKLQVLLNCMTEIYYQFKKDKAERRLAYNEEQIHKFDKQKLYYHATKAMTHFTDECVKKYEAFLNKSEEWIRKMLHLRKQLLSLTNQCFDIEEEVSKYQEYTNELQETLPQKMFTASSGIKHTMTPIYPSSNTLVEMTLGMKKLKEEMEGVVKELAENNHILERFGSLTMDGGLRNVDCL
Outline: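 TBK1 enzyme and substrate incubated with compounds (10-point 1:4 dilution, top 30 uM final, 1% DMSO) for 90 min at 25° C, then stopped. Substrate/product peaks read by microfluidic mobility-shift (Caliper LabChip); 10 uM staurosporine as full-inhibition control.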

Row | Compound | IC50 (IKKε) [nM] | IC50 [1] [nM] | IC50 (TBK1) [nM]
1 | COc1cc(C(=O)NC2CN3CCC2CC3)ccc1-c1cc2nccc(-c3ccc(N4CC[C@H](F)C4)c(C#N)c3)c2o1 (stereo partly drawn) [Compound 72, N-(1-Aza-bicyclo[2.2.2]oct-3-yl)-4-{7-[3-cyano-4-((S)-3-fluoro-pyrrolidin-1-yl)-phenyl]-furo[3,2-b]pyridin-2-yl}-3-methoxy-benzamide] | < 100 | 100 to 1000 | < 100
2 | COc1cc(C(=O)N(C)C)cnc1-c1cc2ncc(F)c(-c3ccc(OC4CCOCC4)c(C#N)c3)c2o1 [Compound 317, 6-(7-(3-cyano-4-(tetrahydro-2H-pyran-4-yloxy)phenyl)-6-fluorofuro[3,2-b]pyridin-2-yl)-5-methoxy-N,N-dimethylnicotinamide] | < 100 | 100 to 1000 | < 100
3 | CN(C)C(=O)c1ccc(-c2cc3nccc(-c4ccc(OC5CC6(COC6)C5)c(C#N)c4)c3o2)cc1 [Compound 177, 4-{7-[3-Cyano-4-(2-oxa-spiro[3.3]hept-6-yloxy)-phenyl]-furo[3,2-b]pyridin-2-yl}-N,N-dimethyl-benzamide] | 100 to 1000 | 1000 to 5000 | 100 to 1000
4 | COc1cc(C(=O)NC(C)(C)CN(C)C)ccc1-c1cc2nccc(-c3ccc(NC4CCOCC4)c(C#N)c3)c2o1 [Compound 134, 4-{7-[3-Cyano-4-(tetrahydro-pyran-4-ylamino)-phenyl]-furo[3,2-b]pyridin-2-yl}-N-(2-dimethylamino-1,1-dimethyl-ethyl)-3-methoxy-benzamide] | < 100 | 100 to 1000 | < 100
5 | COc1cc(C(=O)N[C@@H]2CCC[C@@H](O)[C@H]2O)ccc1-c1cc2nccc(-c3ccc(OC4CCOCC4)c(C#N)c3)c2o1 [Compound 54, 4-{7-[3-Cyano-4-(tetrahydro-pyran-4-yloxy)-phenyl]-furo[3,2-b]pyridin-2-yl}-N-((1R,2S,3R)-2,3-dihydroxy-cyclohexyl)-3-methoxy-benzamide] | < 100 | 100 to 1000 | < 100
6 | CN(C)C(=O)c1ccc(-c2cc3ncc(F)c(-c4ccc(NC5CCOCC5)c(C#N)c4)c3o2)c(F)c1 [Compound 300, 4-(7-[3-cyano-4-[(oxan-4-yl)amino]phenyl]-6-fluorofuro[3,2-b]pyridin-2-yl)-3-fluoro-N,N-dimethylbenzamide] | 100 to 1000 | 1000 to 5000 | 100 to 1000
7 | COc1cc(C(=O)N2CC(N3CCOCC3)C2)ccc1-c1cc2nccc(-c3ccc(OC4CCOCC4)c(C#N)c3)c2o1 [Compound 8] | < 100 | < 100 | < 100
8 | COc1cc(C(=O)N(C)C)cnc1-c1cc2nccc(-c3ccc(OC4CCOCC4)c(C#N)n3)c2o1 [Compound 316, 6-[7-[6-cyano-5-(oxan-4-yloxy)pyridin-2-yl]furo[3,2-b]pyridin-2-yl]-5-methoxy-N,N-dimethylpyridine-3-carboxamide] | < 100 | 100 to 1000 | < 100
9 | COc1cc(C(=O)O)ccc1-c1cc2nccc(-c3ccc(OC4CCOCC4)c(C#N)c3)c2o1 [Compound 21] | < 100 | 1000 to 5000 | < 100
10 | COc1cc(C(=O)N2CCC3(CC2)NCNC3=O)ccc1-c1cc2nccc(-c3ccc(NC4CCOCC4)c(C#N)c3)c2o1 [Compound 34, 5-{2-[2-Methoxy-4-(4-oxo-1,3,8-triaza-spiro[4.5]decane-8-carbonyl)-phenyl]-furo[3,2-b]pyridin-7-yl}-2-(tetrahydro-pyran-4-ylamino)-benzonitrile] | < 100 | 100 to 1000 | < 100

Second part, the molecule after the results:

Row | IC50 (IKKε) [nM] | IC50 [1] [nM] | IC50 (TBK1) [nM] | Compound
11 | < 100 | < 100 | < 100 | COc1cc(C(=O)N(C)C)cnc1-c1cc2nccc(-c3ccc(OC4CCOCC4F)c(C#N)c3)c2o1 (stereo not drawn) [Compound 486, 6-{7-[3-Cyano-4-(3-fluoro-tetrahydro-pyran-4-yloxy)-phenyl]-furo[3,2-b]pyridin-2-yl}-5-methoxy-N,N-dimethyl-nicotinamide]
12 | < 100 | < 100 | < 100 | COc1cc(C(=O)N(C)CCO)ncc1-c1cc2nccc(-c3ccc(N4CC[C@@H](F)C4)c(C#N)c3)c2o1 [Compound 380, 5-{7-[3-Cyano-4-((R)-3-fluoro-pyrrolidin-1-yl)-phenyl]-furo[3,2-b]pyridin-2-yl}-4-methoxy-pyridine-2-carboxylic acid (2-hydroxy-ethyl)-methyl-amide]
13 | < 100 | < 100 | < 100 | COc1cc(C(=O)N2CC[C@@H](N(C)C)C2)ncc1-c1cc2nccc(-c3ccc(N4CC[C@@H](F)C4)c(C#N)c3)c2o1 [Compound 459, 5-[2-(6-[[(3R)-3-(dimethylamino)pyrrolidin-1-yl]carbonyl]-4-methoxypyridin-3-yl)furo[3,2-b]pyridin-7-yl]-2-[(3R)-3-fluoropyrrolidin-1-yl]benzonitrile]
14 | < 100 | 100 to 1000 | < 100 | COc1cc(C(=O)N2CCCCC2)cnc1-c1cc2nccc(-c3ccc(N4CC[C@@H](F)C4)c(C#N)c3)c2o1 [Compound 410, 2-[(3R)-3-fluoropyrrolidin-1-yl]-5-(2-[3-methoxy-5-[(piperidin-1-yl)carbonyl]pyridin-2-yl]furo[3,2-b]pyridin-7-yl)benzonitrile]
15 | < 100 | 100 to 1000 | < 100 | COc1cc(C(=O)N(C)C)cnc1-c1cc2nccc(-c3ccc(N4CCC(F)C4)c(C#N)n3)c2o1 (stereo not drawn) [Compound 488, 2-{7-[6-Cyano-6-5-(3-fluoro-pyrrolidin-1-yl)-pyridin-3-yl]-furo[3,2-b]pyridin-2-yl}-5-methoxy-N,N-dimethyl-nicotinamide]
16 | < 100 | 100 to 1000 | < 100 | COc1cc(C(=O)N(C)C(C)(C)C)ccc1-c1cc2nccc(-c3ccc(OC4CCOCC4)c(C#N)c3)c2o1 [Compound 481, N-tert-Butyl-4-{7-[3-cyano-4-(tetrahydro-pyran-4-yloxy)-phenyl]-furo[3,2-b]pyridin-2-yl}-3-methoxy-N-methyl-benzamide]
17 | < 100 | 100 to 1000 | < 100 | COc1cc(C(=O)NC(C)(C)CCN(C)C)ccc1-c1cc2nccc(-c3ccc(OC4CCOCC4)c(C#N)c3)c2o1 [Compound 505, 4-{7-[3-Cyano-4-(tetrahydro-pyran-4-yloxy)-phenyl]-furo[3,2-b]pyridin-2-yl}-N-(3-dimethylamino-1,1-dimethyl-propyl)-3-methoxy-benzamide]
18 | < 100 | < 100 | < 100 | COc1cc(C(=O)N2CC[C@H](N(C)C)C2)cnc1-c1cc2nccc(-c3ccc(N4CC[C@@H](F)C4)c(C#N)c3)c2o1 [Compound 448, 5-{2-[5-((S)-3-Dimethylamino-pyrrolidine-1-carbonyl)-3-methoxy-pyridin-2-yl]-furo[3,2-b]pyridin-7-yl}-2-((R)-3-fluoro-pyrrolidin-1-yl)-benzonitrile]
19 | < 100 | 100 to 1000 | < 100 | COc1cc(C(=O)NC(C)(C)CN(C)C)ccc1-c1cc2nccc(-c3ccc(NC4C5COCC54)c(C#N)c3)c2o1 (stereo not drawn) [Compound 502, N-(2-dimethylamino-1,1-dimethyl-ethyl)-4-{7-[3-cyano-4-(3-oxa-bicyclo[3.1.0]hex-6-ylamino)-phenyl]-furo[3,2-b]pyridin-2-yl}-3-methoxy-benzamide]
